Values after ≈ are worked out from the molar mass of the structure shown. Where a SMILES comes first, the peptide text is derived from it. [ ]: non-standard residue; d: D form. pGlu = O=C1CC[C@@H](C(=O)O)N1
Key:
TRH-DE = molecular target: T1, TRH-DE (Sus scrofa, UniProt A0A287AP33); test: continuous coupled fluorometric TRH-DE assay (TRHAMC substrate, DPP-IV coupling enzyme); assay type: biochemical, porcine; details: for Ki: non-linear regression, five TRHAMC concentrations and at least three peptide concentrations, mean±S.D. (n=3)
T1 construct: The inventor purified TRH-DE from porcine brain according to purification procedures previously published by Dr. K. Bauer; from tissue; host or cells: porcine brain (TRH-DE); bovine kidney (DPP-IV, gift from Dr. C. H. Williams)
T1 sequence (A0A287AP33 1-1066): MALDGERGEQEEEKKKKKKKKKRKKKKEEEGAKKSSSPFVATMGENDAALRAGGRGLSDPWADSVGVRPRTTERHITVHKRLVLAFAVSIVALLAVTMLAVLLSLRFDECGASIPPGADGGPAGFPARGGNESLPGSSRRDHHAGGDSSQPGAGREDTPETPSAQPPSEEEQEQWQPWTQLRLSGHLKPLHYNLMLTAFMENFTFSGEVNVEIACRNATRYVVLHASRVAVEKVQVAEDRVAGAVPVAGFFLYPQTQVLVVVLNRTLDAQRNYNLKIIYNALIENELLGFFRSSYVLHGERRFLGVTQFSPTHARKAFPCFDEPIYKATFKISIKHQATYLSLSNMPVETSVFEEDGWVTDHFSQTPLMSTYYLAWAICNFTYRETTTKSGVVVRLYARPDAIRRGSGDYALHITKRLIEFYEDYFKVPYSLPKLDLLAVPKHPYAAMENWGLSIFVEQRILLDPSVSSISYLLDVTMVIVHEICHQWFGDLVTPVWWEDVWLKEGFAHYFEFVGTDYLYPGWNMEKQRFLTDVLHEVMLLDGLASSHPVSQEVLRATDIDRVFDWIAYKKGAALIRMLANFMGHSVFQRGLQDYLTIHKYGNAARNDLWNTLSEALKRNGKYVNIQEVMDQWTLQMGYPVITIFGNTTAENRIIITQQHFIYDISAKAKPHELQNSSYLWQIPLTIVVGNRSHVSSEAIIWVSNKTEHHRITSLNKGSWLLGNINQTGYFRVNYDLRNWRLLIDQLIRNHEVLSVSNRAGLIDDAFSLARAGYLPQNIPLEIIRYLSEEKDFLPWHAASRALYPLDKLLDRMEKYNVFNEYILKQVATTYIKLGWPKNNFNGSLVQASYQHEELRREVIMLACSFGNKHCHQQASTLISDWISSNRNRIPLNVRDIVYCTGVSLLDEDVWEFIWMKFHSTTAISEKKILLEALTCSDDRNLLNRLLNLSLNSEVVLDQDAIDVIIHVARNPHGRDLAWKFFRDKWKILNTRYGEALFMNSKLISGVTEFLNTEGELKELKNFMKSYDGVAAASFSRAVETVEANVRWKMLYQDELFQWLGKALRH
Protocol: The inventor purified TRH-DE from porcine brain according to purification procedures previously published by Dr. K. Bauer, (Max-Planck-Institut, Hannover, Germany) (1). TRH-DE was purified almost 20,000 fold. […] Dipeptidyl peptidase IV (DPP-IV) (EC 3.4.14.5), purified from bovine kidney (7.7 mg ml^−1, specific activity of 17.5 U mg^−1 with Gly-ProAMC as substrate), was obtained as a gilt from Dr. C. H. Williams (Queen's University Belfast, U.K). (DPP-IV was used as the coupling enzyme used in the fluorometric assays).
One unit (U) of enzyme activity was defined as that amount catalysing the formation of one μmol of product in one minute under the standard conditions employed. All incubations in the assays described below were carried out in 20 mM potassium phosphate buffer, pH 7.5, at 37° C.
Kinetic analysis of peptides that are not hydrolysed by TRH-DE. A recently-developed continuous coupled fluorometric assay (23) was used to investigate the ability of those library peptides that were not hydrolysed by TRH-DE to inhibit TRHAMC degradation by TRH-DE. In this assay, TRHAMC is the substrate and dipeptidyl peptidase IV (DPP-IV) (EC 3.4.14.5) is the coupling enzyme. The reaction sequence is:
The reaction was monitored continuously by measuring the increase in AMC fluorescence. A linear progress curve with no discernible lag period was observed when the reaction was monitored over a period of 10 minutes. Nevertheless, data sampling was not commenced until 100 s from the start of the reaction to ensure measurements were taken after a steady state had been reached (see Ref. 23).
In a preliminary experiment, the peptides were screened for their ability to inhibit TRH-DE activity. The initial rate of TRHAMC hydrolysis by TRH-DE was measured by incubating 5 μM TRHAMC with 1.23 μg DPP-IV and 0.32 μg TRH-DE, both in the absence and presence of each library peptide (1 mM final concentration) under standard assay conditions (23). In each case the percentage inhibition (i%) was calculated using the equation i%=100(1-vi/vo), where vi and vo are the initial velocities in the presence and absence of peptide, respectively.
Since these peptides were poor inhibitors they were not examined further. The Ki values for the remainder of the peptides were determined by measuring their effects on TRHAMC degradation by TRH-DE using the continuous assay. Data were collected in duplicate at five different substrate concentrations and at least three different concentrations of each peptide.
Reversibility and time dependence of the inhibition produced by Glp-Gln-ProNH2, Glp-Asn-ProNH2 and Glp-Asn-ProAMC were examined by initially preincubating TRH-DE with each peptide at 37° C. for various periods up to 75 min. To investigate time dependence, the enzyme-peptide solution was subsequently added to the reaction mixture containing TRHAMC, DPP-IV, buffer and peptide, and TRH-DE activity was measured using the continuous assay. The final concentration of Glp-Gln-ProNH2, Glp-Asn-ProNH2 and Glp-Asn-ProAMC used was 400, 160 and 1 μM, respectively. […] TRH-DE activity was not affected by pre-incubation at 37° C.
Fluorescence measurements were made using a Perkin Elmer LS 50B Luminescence Spectrometer fitted with a thernostated cell holder. Wavelengths for excitation and emission were set at 370 nm and 440 nm, respectively, with slit widths of 10 nm and 5 nm, respectively.

Male Wistar rats = test: behavioural effects (activity score, WDS, locomotion) after i.p. administration; assay type: in vivo, rat
Protocol: Methods: Behavioural studies were conducted using experimentally naïve Male Wistar rats (200-250 g) maintained in a temperature controlled (21° C.), artificially-lighted (12 hr light cycle) room with free access to food and water. Behavioural effects of TRH±TRH-DE inhibitor following intraperitoneal (i.p.) administration: On the day of the experiment, animals were singly housed in perspex cages (30×20×20 cm) and allowed to acclimatize for 20 min. After this period, two baseline measurements of behaviour were made at 10 and 5 min prior to administration of drugs. […] Animals were then observed by two independent observers who were blind to treatment, every 5 min for 30 sec. Blocks of 5 animals were treated at a time, 1 per drug group. Blocks were repeated 5 times. The occurrence of individual behaviours were noted using a behavioural check list, which included grooming, locomotion, rearing, chewing, sniffing, head weave, tail elevation, and/or straub tail and WDS behaviours. These behaviours were summed to yield an overall activity count. Animals were videotaped for separate subsequent analysis of WDS. All WDS behaviours occurring during each 5 min interval after drug administration were counted. The statistical significance of differences between behavioural effects of treatments was determined using the Student's t-test or ANOVA, followed by a post-ANOVA test, as indicated. Radioligand binding data were analysed using non-linear curve fitting software (Prism, Graph Pad Software Inc.). IC50 values calculated from competition experiments were converted to Ki values using the Cheng-Prusoff (41) equation Ki=IC50/(1+L/Kd), where L=ligand concentration and Kd=the apparent dissociation constant for [^3[…].

For `NC(=O)C[C@H](NC(=O)[C@@H]1CCC(=O)N1)C(=O)N1CCC[C@H]1C(N)=O` [Glp-Asn-ProNH2, pyroglutamyl-asparaginyl-prolineamide] ([pGlu]-Asn-Pro-NH2), the “mode of inhibition of TRH-DE” value (TRH-DE; continuous assay, Lineweaver-Burk plot) was “simple competitive inhibitors”, the Ki (TRH-DE) was 17.5 µM and the Ki (TRH-DE; listed as Glp-Asn-Pro-NH2) was 17.5 µM. For the same compound, the inhibition at 1000 µM (TRH-DE; peptide 1 mM, 5 μM TRHAMC substrate) was 97%, the “reversibility and time dependence of inhibition” value (TRH-DE; preincubation with TRH-DE up to 75 min at 37° C., Glp-Gln-ProNH2 400, Glp-Asn-ProNH2 160, Glp-Asn-ProAMC 1 μM) was “fully reversible and not time-dependent” and the solubility (physchem) was 1000 µg/mL (≈ 2950 µM). The increase in locomotion (Male Wistar rats; i.p. administration, 10 mg/kg) was “not detected” and the “rat activity scores compared with saline” value (Male Wistar rats; i.p., 10 mg/kg each, 40 min post injection) was “significantly increased activity counts”.

— patent US7378397B2 (The Provost, Fellows and Scholars of the College of the …, priority 2000, dated 2008)
